From US9896422B2, “Tetracycline derivatives with reduced antibiotic activity and neuroprotective benefits” (Neumedics, priority 2008, dated 2018)
Read-outs that look alike come from different tables or passages of the source.

Legend:
S. Aureus = test: Antimicrobial susceptibility (zone of inhibition) test, Kirby-Bauer disc diffusion; format: cell-based; details: for The diameter of the zone including sample: S. Aureus, samples 30 ug/ml, Muller-Hinton agar, about 24 hrs, average of triplicate; for antimicrobial activity in this assay: disc diffusion, S. Aureus and E. Coli, 30 ug/ml
Protocol: (§1) Anti-microbial susceptibility (zone of inhibition) tests were conducted by an outside analytical laboratory. The Kirby-Bauer or disc diffusion method of assessing antimicrobial activity is an established literature procedure and was used with some modifications to the standard protocol: 1) S. Aureus and E. Coli were grown in Muller-Hinton broth and incubated at 30-35° C. for 18-24 hrs, 2) samples were diluted in sterile water for injections or pure water to achieve a concentration of 30 ug/ml and were plated in triplicate, and 3) the test plates were prepared using Muller-Hinton agar and incubated at 30-35° C. for approximately 24 hrs.
(§2) The diameters of the zone of inhibition (if present) around the test sample were measured using calibrated calipers. […] 3a has some activity (average zone of 24.45 mm) against S. Aureus.

E. Coli = test: as above; format: cell-based; details: samples 30 ug/ml, Muller-Hinton agar, about 24 hrs
Protocol: as §1, §2

[1] = Stability testing in solution; format: physicochemical; details: de-ionized water, saline and PBS at pH of about 3 to 7.5
Protocol: Compounds of the present invention will be stable in solution and/or in powder form. To test for stability in different solutions (e.g., de-ionized water, de-ionized water adjusted with K2HPO4 to pH 7.4, de-ionized water adjusted with NaOH to pH 9, saline solution or PBS). The compounds are tested for degradation at different times at different temperatures. By way of example, compound 3b was stable in de-ionized water saline and PBS at pH of about 3 to 7.5.

[2] = Intravenous blood brain barrier (BBB) penetration assay in mice; format: in vivo, CD-1 mice; details: 1 mg/kg tail-vein
Protocol: Intravenous blood brain barrier (BBB) penetration of Compounds 38 and 3b in mice was assessed by an outside analytical laboratory using the standard protocol. CD-1 mice were tail-vein injected with 38 or 3b (1 mg/kg, n=3), and the plasma and brain samples were collected at 30, 60 and 180 min time intervals. The concentration of 38 and 3b in brain (ng/g tissue), plasma and the ratio of the brain concentration at each time point were determined by acetonitrile precipitation of the test compounds from the samples followed by HPLC-MS?MS analysis.
After treatment of the animals with the test compounds, plasma samples were collected by cardiac puncture. Blood aliquots (300-400 μL) were collected in lithium heparincoated tubes, mixed gently, then kept on ice and centrifuged at 2,500×g for 15 minutes at 4° C. within 1 hour of collection. Plasma was then harvested and kept frozen at −20° C. until further processing.
Immediately after blood sampling, mice were decapitated and the whole brains were quickly removed, rinsed with cold saline (0.9% NaCl, g/mL), surface vasculature ruptured, blotted with dry gauze weighed and kept on ice until further processing within 1 hour of collection. Each brain was homogenized in 1.5 mL cold phosphate-buffered saline, pH 7.4, for 10 seconds on ice using a POWERGEN 125 homogenizer. Each sample was then stored at −20° C. until further processing.
Brain homogenates collected as above were processed by adding an equal volume of chilled 26% (g/mL) neutral Dextran (average MW 65,000-85,000, from Sigma, catalog number D-1390) solution to obtain a final Dextran concentration of 13%. The homogenate was centrifuged at 5400×g for 15 minutes at 4° C. Supernatents were subsequently processed using acetonitrile precipitation and analyzed by HPLC-MS. A brain calibration curve was generated by spiking drug-free brain homogenate from the control animals with test compound at specified concentration levels. The spiked brain homogenate samples were processed together with the unknowns using the same procedure. Processed brain samples were stored frozen (−20° C.) until LC-MS/MS analysis.
Plasma samples collected as above were processed and analyzed as for the brain homogenate supernatents described above.
After processing, all samples were analyzed using HPLC-MS/MS analysis. HPLC analysis employed a Synergi Max-RP 80 HPLC column (2×50 mm, 4 μm, Phenomenex Part No. 00B-4337-B0), using a first mobile phase of 13.3 mM ammonium formate/6.7 mM formic acid in water, and a second mobile phase of 6 mM ammonium formate/3 mM formic acid in water/CH3CN (1/9, v/v). MS/MS analysis was done on a TSQ QUANTUM with selected reaction monitoring, positive ion mode, using a capillary temperature of 325° C. and a capillary voltage of 4.0 kV. Peak areas were recorded, and the concentrations of the test compound in the unknown brain samples were determined using the respective calibration curves.

| Compound | The diameter of the zone including sample (S. Aureus) | antimicrobial activity in this assay (S. Aureus) | The diameter of the zone including sample (E. Coli) | stability in solution [1] | blood brain barrier penetration in vivo [2] | concentration in the brain ([2]; 180 min, n=3) | concentration at 30 min ([2]; CD-1, mouse, brain, intravenous, 30 min, n=3, read-out: concentration in the brain) [ng/g] | concentration at 60 min ([2]; CD-1, mouse, brain, intravenous, n=3, read-out: concentration in the brain) [ng/g] | Kp at 0.5 h ([2]; CD-1, mouse, brain/plasma, intravenous, 30 min, read-out: Calculated ratio of brain to plasma concentration) | concentration at 30 min ([2]; CD-1, mouse, plasma, intravenous, 30 min, n=3, read-out: Plasma concentration) [ng/mL] | concentration at 60 min ([2]; CD-1, mouse, plasma, intravenous, n=3, read-out: Plasma concentration) [ng/mL] | concentration at 180 min ([2]; CD-1, mouse, plasma, intravenous, 180 min, n=3) [ng/mL] |
| --- | --- | --- | --- | --- | --- | --- | --- | --- | --- | --- | --- | --- |
| CN(C)c1cc2[nH]c(=O)oc2c2c1C[C@H]1C[C@H]3[C@H](N(C)C)C(O)=C(C(N)=O)C(=O)[C@@]3(O)C(O)=C1C2=O [Compound 3b, (6aR,7aS,8S,11aS)-5,8bis(dimethylamino)-9,11a,12-trihydroxy-2,11,13-trioxo-2,3,6,6a,7,7a,8,11,11a,13decahydrotetraceno[2,1-d]oxazole-10-carboxamide] | no zone | no antimicrobial activity | no zone | stable | acceptable | below the limit of quantitation | 6.7 | 5.8 | 0.07 | 97 | 27 | 4 |
| CN(C)c1cc2c(c3c1C[C@H]1C[C@H]4[C@H](N(C)C)C(O)=C(C(N)=O)C(=O)[C@@]4(O)C(O)=C1C3=O)OCC(=O)N2 [Compound 38, (6aR,7aS,8S,11aS)-5,8-bis(dimethylamino)-9,11a,12-trihydroxy-2,11,13trioxo-2,3,6,6a,7,7a,8,11,11a,13-decahydrotetraceno[2,1-d]morpholine-10-carboxamide] | no zone | no antimicrobial activity | no zone | – | – | – | – | – | – | – | – | – |
| CN(C)c1cc2ncoc2c2c1C[C@H]1C[C@H]3[C@H](N(C)C)C(O)=C(C(N)=O)C(=O)[C@@]3(O)C(O)=C1C2=O [Compound 3a, (6aR,7aS,8S,11aS)-5,8-bis(dimethylamino)-9,11a,12trihydroxy-11,13-dioxo-6,6a,7,7a,8,11,11a,13-octahydrotetraceno[2,1-d]oxazole-10carboxamide] | – | – | no zone | – | – | – | – | – | – | – | – | – |
